In patent US20260199496A1, “LINKER, LINKER-CONTAINING ANTIBODY DRUG CONJUGATE, AND PREPARATION METHOD THEREFOR AND USE THEREOF” (CHENGDU CHIPSCREEN NEWWAY BIOSCIENCES CO., LTD., priority 2022, published 2026):
Several values for one entry are separate records, joined by “and”; a condition that tells them apart may be missing. Equal values may be shown once. Blank lines part the entries; values can stand above or below the compound they belong to.

What was measured:
[1] = test system: A375-hPDL1-Luciferase cells; assay: Inhibition of A375 in co-culture with human PBMCs (luciferase); format: cell-based; details: PBMC:A375 E:T 5:1, Matrigel, 6 days
Experimental: Cryopreserved PBMCs were taken out from a liquid nitrogen tank and added to 8 mL of pre-heated RPMI 1640 medium, and the mixture was centrifuged at 500 g for 10 min. The supernatant was discarded, and the PBMCs were resuspended in a small amount of RPMI 1640 medium. Then, the cell suspension was 10-fold diluted, and 20 μL of dilution was taken for cell counting. The cells were resuspended to 5E6 cells/mL. The A375-hPDL1-Luciferase cell suspension was collected, and 20 μL was taken for cell counting. The cells were resuspended to 1E6 cells/mL. The PBMC and A375-hPDL1-Luciferase cell suspensions were mixed at equal volumes to prepare a cell mixture with an E:T ratio of 5:1, and the mixture was adjusted to a total volume of 1500 L using RPMI 1640 complete medium. Matrigel was thawed on ice, and 1500 L of the thawed Matrigel was mixed with the cell mixture. The resulting mixture was added to a black 384-well plate at 20 μL/well, which was then placed at 37° C. for 10 min for solidification. […] The dilutions were added to the 384-well plate at 30 μL/well, and the cells were cultured at 37° C. with 5% CO2 for 6 days. Then, the 384-well plate was taken out, and Bio-Lite Luciferase Assay System was added at 20 μL/well. The mixture was incubated for 5-10 min and then assayed using a multi-mode microplate reader. The results are shown in FIG. 31, FIG. 32, and Table 7.

CT26 hPD-L1-EX cells [2] = assay: Inhibition of CT26 hPD-L1-EX cell proliferation (MTS); format: cell-based; details: replicate wells; for Inhibition % / OD490: 5 μM, 48 h
Experimental: (1) CT26 hPD-L1-EX cells were collected, and 20 μL was taken for cell counting. (2) The cells were resuspended to 0.5×10^5 cells/mL and 0.5×10^5 cells/mL (5 mL each). (3) The cell suspensions were respectively added to two 96-well plates at 50 μL/well, followed by overnight culture at 37° C. with 5% CO2. (4) The ADC sample was diluted according to predetermined concentrations and added to the well plates at 100 μL/well. (5) The cells were cultured at 37° C. with 5% CO2 for 48 h. (6) 50 μL of culture medium was first aspirated and discarded, and then an MTS reagent was added at 20 μL/well. The cells were cultured at 37° C. with 5% CO2 for another 1-4 h. (7) Readings were taken at 490 nm.

CT26 hPD-L1-EX cells [3] = assay: Inhibition of CT26 hPD-L1-EX cell proliferation (CCK8); format: cell-based; details: 2 days, CCK8, replicate wells; for Inhibition % / OD450: 10 μM
Experimental: (1) CT26 hPD-L1-EX cells were collected, and 20 μL was taken for cell counting. (2) The cells were resuspended to 2×10^5 cells/mL. (3) The cell suspension was added to a 96-well plate at 50 μL/well (1×10^4 cells/well), followed by overnight culture at 37° C. with 5% CO2. (4) The next day, the 96-well plate was taken out. The test sample was diluted with complete medium containing 10% FBS and then added to the plate at 50 µL/well to achieve a final sample concentration of 10 μM. The day of test sample addition was designated as day 0. The cells were cultured at 37° C. with 5% CO2 for another 2 days. (5) Day 2: The cell growth status was observed under a microscope, and then CCK8 was added at 10 μL/well. The cells were then cultured at 37° C. with 5% CO2 for another 4 h. (6) Absorbance values at 450 nm (OD450) were measured in real-time using a microplate reader.

hPD-L1-his = hPD-L1-his (Homo sapiens, UniProt Q9NZQ7); assay: SPR (Biacore T200) affinity for hPD-L1-his; details: 1:1 binding model
Experimental: The procedures were as follows: A CM5 chip was activated with N-hydroxysuccinimide (NHS) and 1-ethyl-3-(3-dimethylaminopropyl)carbodiimide hydrochloride (EDC) at a 1:1 (v/v) ratio. Then, an anti-his antibody was immobilized, and the chip was blocked. 1 g/mL hPD-L1-his was captured onto the chip surface. […] The program was set. The samples were then loaded, and the program was executed. Data were analyzed using the Biacore Evaluation Software with the 1:1 binding model for kinetic fitting.

NCI-H292 cells = assay: Internalization in human lung cancer cell line NCI-H292; format: cell-based; details: NCI-H292, 150 nM, 2 h, 4 h, 22 h; FIG. 28
Experimental: (1) NCI-H292 cells were collected, and 20 µL was taken for cell counting. (2) The cells were resuspended to 6×10^6 cells/mL, and the cell suspension was added into two 1.5-mL EP tubes at 100 μL/tube. (3) Diluted antibody-drug conjugate (ADC) group and antibody group samples were added separately at 100 L/tube, achieving a final sample concentration of 150 nM. The mixtures were thoroughly mixed and then incubated at 4° C. in the dark for 1 h. (4) The mixtures were washed twice with pre-cooled PBS and centrifuged at 1200 rpm for 5 min at 4° C., and then the supernatants were discarded. (5) Complete medium was added at 300 μL/tube to resuspend the cells, and the cell suspensions were separately transferred to new EP tubes at 150 L/tube, with one tube kept at 4° C. and the other incubated at 37° C. (6) After 2 h, 4 h, and 22 h, 50 L of cell suspension was collected from each of the 4° C. and 37° C. tubes, transferred to new EP tubes, mixed with 1 mL of pre-cooled PBS, and centrifuged at 1200 rpm for 5 min at 4° C., and then the supernatants were discarded. […] (9) Pre-cooled PBS was then added at 100 L/tube to resuspend the cells, and the cell suspensions were analyzed on a machine. (10) The internalization rate was calculated using the following formula: Internalization (%)=positive rate4° C. […]

Rat PD-L1-his = Rat PD-L1-his (Rattus norvegicus, UniProt D4AE25); assay: SPR (Biacore T200) affinity for Rat PD-L1-his; details: ligand Rat-PD-L1-His, 1:1 binding model
Experimental: (§1) […] Cyno PD-L1-his was captured onto the chip surface. The antibody-drug conjugate samples and the naked antibody sample were 2-fold diluted with 1×PBST to give a total of 7 concentration points, with the sample concentrations all being 25 nM-0.39 nM. The program was set. The samples were then loaded, and the program was executed. Data were analyzed using the Biacore Evaluation Software with the 1:1 binding model for kinetic fitting. The above steps were repeated. 2 μg/mL hPD-L1-his, 5 μg/mL mPD-L1-his, and 5 µg/mL Rat PD-L1-his were captured onto the chip surface separately. The above 4 samples were 2-fold diluted with 1×PBST. […] The program was set. The samples were then loaded, and the program was executed. Data were analyzed using the Biacore Evaluation Software with the 1:1 binding model for kinetic fitting.

MC38 tumor = assay: C57BL/6J mouse MC38 tumor model, ADC vs naked antibody (18.1); format: in vivo; details: 10 mg/kg intraperitoneal, three times per week, day 7 post-administration
Experimental: 18.1. The specific procedures were as follows: On the day of cell inoculation, each C57BL/6J mouse was subcutaneously inoculated with 3×10^5 MC38 cells (0.1 mL/mouse). When the average tumor volume in mice reached about 70-80 mm^3, grouping was performed. A total of 24 mice were divided into 3 groups, and drug administration began on the day of grouping. The administration regimen was three times per week, and the route of administration was intraperitoneal injection. […] The vehicle control group was intraperitoneally injected with an equivalent volume of PBS solution. After the start of administration, the body weight and tumor volume were measured three times per week. The tumor volume was calculated as: tumor volume (mm^3)=0.5×long diameter of tumor×(short diameter of tumor)^2. The experiment was terminated on day 7 post-administration. All mice were euthanized, and tumor tissues were collected and weighed.

Cyno PD-L1-his = assay: SPR (Biacore T200) affinity for Cyno PD-L1-his; design: species or system cynomolgus monkey; details: ligand Cyno PD-L1-His, 1:1 binding model
Experimental: as §1

mPD-L1-his = mPD-L1-his (Mus musculus, UniProt Q9EP73); assay: SPR (Biacore T200) affinity for mPD-L1-his; details: ligand mPD-L1-His, 1:1 binding model
Experimental: The program was set. The samples were then loaded, and the program was executed. Data were analyzed using the Biacore Evaluation Software with the 1:1 binding model for kinetic fitting. The above steps were repeated. 2 μg/mL hPD-L1-his, 5 μg/mL mPD-L1-his, and 5 g/mL Rat PD-L1-his were captured onto the chip surface separately. The above 4 samples were 2-fold diluted with 1×PBST. […] The program was set. The samples were then loaded, and the program was executed. Data were analyzed using the Biacore Evaluation Software with the 1:1 binding model for kinetic fitting.

[4] = Table 3-1, ligand hPD-L1-His captured

Sequence of hPD-L1-his (Q9NZQ7 19-290): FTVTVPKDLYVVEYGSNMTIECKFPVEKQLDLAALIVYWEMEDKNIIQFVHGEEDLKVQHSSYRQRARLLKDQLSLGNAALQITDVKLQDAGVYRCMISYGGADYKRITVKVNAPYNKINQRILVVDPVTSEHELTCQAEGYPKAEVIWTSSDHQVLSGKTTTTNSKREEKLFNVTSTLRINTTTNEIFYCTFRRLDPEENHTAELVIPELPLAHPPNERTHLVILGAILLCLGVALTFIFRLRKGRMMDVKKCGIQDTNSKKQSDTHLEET
Sequence of mPD-L1-his (Q9EP73 19-290): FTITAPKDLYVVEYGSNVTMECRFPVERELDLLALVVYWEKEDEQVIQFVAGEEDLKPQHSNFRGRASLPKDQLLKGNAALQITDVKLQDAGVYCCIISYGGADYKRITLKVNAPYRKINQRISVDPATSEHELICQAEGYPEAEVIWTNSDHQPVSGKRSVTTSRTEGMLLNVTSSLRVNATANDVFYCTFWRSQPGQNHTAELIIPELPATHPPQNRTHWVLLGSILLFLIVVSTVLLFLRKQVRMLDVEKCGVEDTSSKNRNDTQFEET
Sequence of Rat PD-L1-his (D4AE25 1-290): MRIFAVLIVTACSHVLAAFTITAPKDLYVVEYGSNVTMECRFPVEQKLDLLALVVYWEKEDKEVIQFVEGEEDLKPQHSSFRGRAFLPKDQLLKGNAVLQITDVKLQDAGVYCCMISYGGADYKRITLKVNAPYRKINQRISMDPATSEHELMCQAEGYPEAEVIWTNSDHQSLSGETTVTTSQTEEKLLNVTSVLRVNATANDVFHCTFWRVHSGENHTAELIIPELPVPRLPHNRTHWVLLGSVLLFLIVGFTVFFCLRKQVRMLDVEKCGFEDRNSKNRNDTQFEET

IC50 [1]: 823 nM
Compound: Nc1cc(F)ccc1NC(=O)c1ccc(CNC(=O)/C=C/c2cccnc2)cc1 [Chidamide, reference compound]
Inhibition % (CT26 hPD-L1-EX cells [2]): 11.73%
OD490 (CT26 hPD-L1-EX cells [2]): 1.0283 and 1.0841
inhibition at 5 µM (CT26 hPD-L1-EX cells [2]; Mus musculus, CT26, 48 h): 16.1%
Inhibition % (CT26 hPD-L1-EX cells [3]): 14.58% and 12.16%
OD450 (CT26 hPD-L1-EX cells [3]): 1.9014 and 1.9554 and 1.7934
inhibition at 10 µM (CT26 hPD-L1-EX cells [3]; Mus musculus, CT26, 48 h): 19.4%

ka (hPD-L1-his; [4]): 1.26e+06 M⁻¹ s⁻¹
kd (1/s) (hPD-L1-his; [4]): <10^−5 1/s
ka (hPD-L1-his; Table 3-2, ligand hPD-L1-His): 2.46e+06 M⁻¹ s⁻¹
kd (hPD-L1-his; Table 3-2, ligand hPD-L1-His): <1e-05 s⁻¹
ka (Rat PD-L1-his): 2.86e+06 M⁻¹ s⁻¹
kd (Rat PD-L1-his): 0.000981 s⁻¹
Kd (Cyno PD-L1-his): 0.0826 nM
kd (Cyno PD-L1-his): 0.00013 s⁻¹
ka (mPD-L1-his): 1.76e+06 M⁻¹ s⁻¹
kd (mPD-L1-his): 0.000119 s⁻¹
Compound: atezolizumab [Ate antibody]
tumor cell internalization rate (NCI-H292 cells): increased over time
Inhibition % (CT26 hPD-L1-EX cells [2]): 4.42% and 5.66%
OD490 (CT26 hPD-L1-EX cells [2]): 1.1715 and 1.1587
tumor growth inhibition rate TGI (%) (MC38 tumor): 16.26%
tumor volume (MC38 tumor): 701.09 mm^3
ka (Cyno PD-L1-his): 1.58e+06 M⁻¹ s⁻¹
Inhibition % (CT26 hPD-L1-EX cells [3]): 13.08% and 4.39% and 10.94%
OD450 (CT26 hPD-L1-EX cells [3]): 2.1282 and 1.9824 and 1.9349
